Test results published in patent US7153883B2, “Carboxylic acids and carboxylic acid isosteres of N-heterocyclic compounds” (GPI NIL Holdings Inc., priority 1998, dated 2006).
Each block holds one compound with its values, some of them ahead of it.

Key:
Clearance = type: in vitro ADME
[1] = system: retinal ganglion cell axons; test: Protection of retinal ganglion cell axons 14 days after optic nerve transection (RT97); type: in vivo, Sprague Dawley rats; settings: ± SEM
Excerpt: Efficacy of representative compounds from different immunophilin ligand series in protecting retinal ganglion cell axons from degeneration following optic nerve transection is set forth in Table VI.

dopaminergic neurons = test: MPTP model of Parkinson's Disease in mice (TH immunostaining); type: in vivo, CD1 white mice; settings: Mus musculus, Neuron, po; 10 mg/kg p.o.; MPTP-lesioned mice; read-out: Post-MPTP % TH RECOVERY
Method: MPTP lesioning of dopaminergic neurons in mice was used as an animal model of Parkinson's Disease. Four week old male CD1 white mice were dosed i.p. with 30 mg/kg of MPTP for 5 days. […] At 18 days following MPTP treatment, the animals were sacrificed and the striata were dissected and homogenized. Immunostaining was performed on saggital and coronal brain sections using anti-tyrosine hydroxylase Ig to quantitate survival and recovery of dopaminergic neurons. In animals treated with MPTP and vehicle, a substantial loss of functional dopaminergic terminals was observed as compared to non-lesioned animals. In another protocol, test compounds were administered only subsequent to MPTP-induced lesioning. Thus, after animals were treated with MPTP for 5 days, an additional 3 days passed before beginning oral drug treatment on day 8. […] On day 18, the animals were sacrificed and analyzed as described above.
Table V presents the percent recovery of dopaminergic neurons in the first (concurrent dosing) paradigm in animals receiving carboxylic acid or carboxylic acid isostere compounds of the present invention.
Percent striatal innervation density was quantitated in brain sections with an anti-tyrosine hydroxylase immunoglobulin, which is indicative of functional dopaminergic neurons. The striatal innervation density of 23% for animals pretreated with only a vehicle and administered a vehicle orally during treatment, is indicative of normal non-lesioned striatal tissue. Striatal innervation density is reduced to 5% for animals pretreated with MPTP and administered a vehicle orally during treatment, and is indicative of MPTP-induced lesioning.

hair growth = test: In vivo hair generation test with C57 Black 6 mice; settings: topical, 1 μmole per milliliter three times per week, evaluated after 14 days
Method: Care was taken not to nick or cause abrasion to the underlaying dermal layers. The animals were in anagen growth phase, as indicated by the pinkish color of the skin. Referring now to FIG. 2, four animals per group were treated by topical administration with 20% propylene glycol vehicle (FIG. 2), or neuroimmunophilin FKBP ligands dissolved in the vehicle. The animals were treated with vehicle or neuroimmunophilin ligands every 48 hours (3 applications total over the course of 5 days) and the hair growth was allowed to proceed for 6 weeks. Hair growth was quantitated by the percent of shaved area covered by new hair growth during this time period.
Care was taken not to nick or cause abrasion to the underlying dermal layers. Compounds at a concentration of 1 μmole per milliliter were carefully applied to the shaved area of the mice (5 mice per group) three times per week. Hair growth was evaluated 14 days after initiation of drug treatment. The relative scale for assessing hair growth is as follows: • 0=no growth; • 1=beginning of growth in small tufts; • 2=hair growth covering over <25% of shaved area; • 3=hair growth covering over >25% of shaved area, but less than 50% of shaved area; • 4=hair growth covering over >50% of shaved area, but less than 75% of shaved area; • 5=complete hair growth of shaved area.

Rotamase = Rotamase (Homo sapiens, UniProt P62942); test: Rotamase inhibition; type: biochemical; settings: read-out: K1 Rotamase
retinal ganglion cells = test: Retinal ischemia: ganglion cell, optic nerve axon and myelin degeneration; type: in vivo, rats
Excerpt: Retinal ganglion cells were retrogradely labeled in adult rats by bilateral injection of fluorogold in their lateral geniculate nuclei. Labeled ganglion cells in the normal rat retina appear as white profiles against the dark background (FIG. 4A). Complete retinal ischemia was produced by infusing normal saline solution into the retinal vitreous cavity of each eye until the intraocular pressure exceeded arterial blood pressure. 28 days after the ischemic episode extensive degeneration of retinal ganglion cell was evidenced by massive reduction in the density of fluorogold labeled cells (FIG. 4B).

spatial memory = test: Morris watermaze spatial learning and memory in aged rodents; type: in vivo, C57BL/6N-Nia mice; settings: 10 mg/kg daily, retention testing after 3 weeks of dosing; aged impaired mice
Excerpt: The Morris watermaze is widely used for assessing spatial memory formation and retention in experimental animals. The test depends on the animal's ability to utilize spatial visual information in order to locate a submerged escape platform in a water tank. It is important that the tank itself be as devoid of specific visual features as possible—thus, it is always circular in shape, the sides are kept smooth and in uniform dull colors, and the water is rendered opaque with nontoxic watercolour pigment or powdered milk. This is to ensure that the animal navigates only by the use of more distant visual cues, or by the use of intra-maze cues specifically provided by the experimenter. The animals' path, speed, and swim time are tracked with a ceiling camera for later computerized analysis. Over the course of several successive trials, spatial learning can therefore be defined as a drop of distance swum, or time elapsed, from placement in the tank until escape onto the invisible platform. The procedure involved using three-month old (young) and 18–19 month old male C57BL/6N-Nia (aged) mice which habituated to the well known and conventional Morris watermaze during a 4 trials/day, 3–4 day visible platform training phase. […] Swim Distances (cm) were analyzed in a 7×5 ANOVA including Groups and Blocks (1–5) as factors in the analysis, treating Blocks as a repeated measure.

retina = test: Streptozotocin induced diabetes: retinal neovascularization and neuron loss; type: in vivo; settings: 28 day treatment beginning 8 weeks after onset of diabetes
[2] = system: retinal ganglion cells and optic nerve axons; test: Optic nerve transection: retinal ganglion cell survival, optic nerve axons and myelin 90 days after transection; type: in vivo, Sprague Dawley rats
Excerpt: Transection of the mammalian optic nerve results in a brief period of abortive regeneration, but the majority of axotomized neurons die and the axons from many persisting ganglion cells die back beyond the optic nerve head. […]
All eyes and optic nerves stumps were removed.

[3] = 28 days after 1 hour retinal ischemic episode
[4] = 10 mg/kg/day s.c. for 28 days, 90 days after transection
[5] = treatment first 14 days, 90 days after transection
[6] = treatment first 28 days, 90 days after transection

Sequence of Rotamase (P62942 2-108 limits assumed): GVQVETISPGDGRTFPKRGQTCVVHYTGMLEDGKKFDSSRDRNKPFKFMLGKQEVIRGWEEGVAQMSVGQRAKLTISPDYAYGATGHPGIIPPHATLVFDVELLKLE

Compound: O=C(SCCCc1ccccc1)[C@@H]1CCCN1S(=O)(=O)Cc1ccccc1 [C]
Clearance (Clearance): 31.1 µL/min | RT97 + RGC axon density 14 days after ON transection (% ON axons rescued) [1]: 60.4%±3.1%SEM

Compound: CCC(C)(C)C(=O)C(=O)N1CCC[C@H]1CO [Compound 26, (2S)-1-(1,2-dioxo-3,3-dimethylpentyl)-2-hydroxymethyl pyrrolidine]
percent TH recovery after MPTP at 10 mg/kg (dopaminergic neurons): 23.2%

melting point: 91 to 93 °C
Compound: CCC(C)(C)C(=O)C(=O)N1CCC[C@H]1CC#N [Compound 28, 2-[1-(3,3-Dimethyl-2-oxopentanoyl)pyrrolidin-2-yl]ethanenitrile]
percent TH recovery after MPTP at 10 mg/kg (dopaminergic neurons): 15.7%

Compound: CCC(C)(C)C(=O)C(=O)N1CCC[C@H]1C#N [Compound 29, (2S)-1-(1,2-dioxo-3,3-dimethylpentyl)-2-pyrrolidinecarbonitrile]
percent TH recovery after MPTP at 10 mg/kg (dopaminergic neurons): 34.1%

Compound: CCC(C)(C)C(=O)C(=O)N1CCC[C@H]1c1nnn[nH]1 [Compound 30, (2S)-1-(1,2-dioxo-3,3-dimethylpentyl)-2-pyrrolidinetetrazole]
percent TH recovery after MPTP at 10 mg/kg (dopaminergic neurons): 19.6%

Compound: CCC(C)(C)C(=O)C(=O)N1CCCC[C@H]1C(N)=O [Compound 35, (2S)-1-(1,2-dioxo-3,3-dimethylpentyl)-2-aminocarbonyl piperidine]
percent TH recovery after MPTP at 10 mg/kg (dopaminergic neurons): 46.5% | hair growth on shaved area (hair growth): dramatic hair growth

Compound: CCC(C)(C)C(=O)C(=O)N1CCC[C@H]1C(=O)O [Compound 137, (2S)-1-(1,2-dioxo-3,3-dimethylpentyl)-2-pyrrolidinecarboxylic acid]
percent TH recovery after MPTP at 10 mg/kg (dopaminergic neurons): 26.7% | hair growth on shaved area (hair growth): dramatic hair growth

melting point: 72 to 74 °C
Compound: CCC(C)(C)C(=O)C(=O)N1CCC[C@H]1C(=O)NNC(=O)c1cccs1 [Compound 140, [1-(3,3-Dimethyl-2-oxopentanoyl)pyrrolidin-2-yl]-N-(2-thienylcarbonylamino)-formamide]
percent TH recovery after MPTP at 10 mg/kg (dopaminergic neurons): 10.4%

Compound: CCC(C)(C)C(=O)C(=O)N1CCC[C@H]1COc1ccc([N+](=O)[O-])cc1 [Compound 141, 3,3-Dimethyl-1-{2-[(4-nitrophenoxy)methyl]pyrrolidinyl}pentane-1,2-dione]
percent TH recovery after MPTP at 10 mg/kg (dopaminergic neurons): 26.3%

melting point: 59 to 61 °C
Compound: CCC(C)(C)C(=O)C(=O)N1CCC[C@H]1C(=O)NNS(=O)(=O)c1ccc(C)cc1 [Compound 146, [1-(3,3-Dimethyl-2-oxopentanoyl)pyrrolidin-2-yl]-N-{[(4-methylphenyl)sulfonyl]-amino}formamide]
percent TH recovery after MPTP at 10 mg/kg (dopaminergic neurons): 40.6%

melting point: 57 to 60 °C
Compound: CCC(C)(C)C(=O)C(=O)N1CCC[C@H]1C(=O)NNS(=O)(=O)c1ccc(F)cc1 [Compound 147]

Compound: CCC(C)(C)C(=O)C(=O)N1CCC[C@H]1c1nnc(S)[nH]1 [Compound 148, (2S)-3,3-Dimethyl-1-[2-(5-sulfanyl(4H-1,2,4-triazol-3-yl))pyrrolidinyl]-pentane-1,2-dione]
percent TH recovery after MPTP at 10 mg/kg (dopaminergic neurons): 21.4%

Clearance (Clearance): 41.8 µL/min
Compound: CCC(C)(C)C(=O)C(=O)N1CCCCC1C(=O)OC(CCc1ccccc1)CCc1ccccc1 (centres unmarked) [E]

Ki (Rotamase): 272 nM
Compound: CCC(C)(C)C(=O)C(=O)N1CCSC1C(=O)OCCCc1cccnc1 (centres unmarked) [F]

Compound: CCC(C)(C)C(=O)C(=O)N1CCC[C@H]1C(=O)OCCCc1cccnc1 [GPI 1046]
protection of vulnerable ganglion cell population (retinal ganglion cells; 10 mg/kg s.c. 1 hour prior to ischemia and 10 mg/kg/day next four days, 28 days after ischemia): noticeable protection of a large proportion | density of degenerating myelin figures (retinal ganglion cells; [3]): dramatically decreased | optic nerve axon degeneration (retinal ganglion cells; [3]): protected the majority of optic nerve axons from degeneration | spatial memory performance (retention testing, swim distance) (spatial memory): significantly enhanced spatial memory performance | neovascularization in the PR, ONL, OPL and INL (retina): reduced neovascularization | neuronal loss in the ONL (retina): did not appear to protect against neuronal loss in the ONL | loss of neurons in the INL and GCL (retina; vs streptozotocin/vehicle): appeared to decrease the loss of neurons | Clearance (Clearance): 63.8 µL/min | axons of protected neurons in the proximal stump [2, 4]: preserved the axons of virtually all protected neurons | ganglion cell population spared [2, 4]: 25% | density of large, medium and small caliber optic nerve axons ([2]; 28 day treatment): significant increase | density of myelin, distal stump ([2]; treatment first 14 days): slightly increase the density of myelin | shrinkage of the distal stump ([2]; treatment first 14 days): did not protect against shrinkage of the distal stump | protection of optic nerve axons, proximal stump [2, 5]: 5.3% | recovery in myelin density, proximal stump [2, 5]: 1.6% | cross sectional shrinkage of the distal stump ([2]; treatment first 28 days): prevented cross sectional shrinkage | protection of the vulnerable ganglion cell population ([2]; treatment first 28 days after transection, 90 days after transection): 12.6% | myelin levels in distal stump, % of normal levels [2, 6]: 99% | recovery of myelin density, proximal stump [2, 6]: 70% | density of retinal ganglion cells that survived ([2]; treatment for 14 days, 90 days after transection): small but not significant increase | spared retinal ganglion cells with protected optic nerve axons ([2]; treatment for 28 days, 90 days after transection): 81.4% | RT97 + RGC axon density 14 days after ON transection (% ON axons rescued) [1]: 60.5%±3.9%SEM

Clearance (Clearance): 8.0 µL/min
Compound: O=C(OCCCc1cccnc1)[C@@H]1CCCN1C(=S)NC1CCCCC1 [I]

Clearance (Clearance): 1.5 µL/min
Compound: CCC(C)(C)C(=O)C(=O)N1CCC[C@H]1C(=O)CCCCc1cccnc1 [J]

Clearance (Clearance): 4.5 µL/min
Compound: CCC(C)(C)C(=O)C(=O)N1CCCC[C@H]1C(=O)SCCC(c1ccccc1)c1ccccc1 [K]

Compound: CCC(C)(C)C(=O)C(=O)N1CCC[C@H]1C(=O)O [L]
Clearance (Clearance): 5.2 µL/min | RT97 + RGC axon density 14 days after ON transection (% ON axons rescued) [1]: 7.8%±3.0%SEM

Compound: CCC(C)(C)C(=O)C(=O)N1CCC[C@H]1C(=O)SCCC(c1ccccc1)c1ccccc1 [M]
Clearance (Clearance): 12.5 µL/min | RT97 + RGC axon density 14 days after ON transection (% ON axons rescued) [1]: −6.3%±3.9%SEM

Clearance (Clearance): 21.9 µL/min
Compound: CN(C)C(=O)N1CCC[C@H]1C(=O)SCCCc1ccccc1 [N]
